The EC50 is the midpoint of the concentration-response curve.

Like-named read-outs stand apart in the source and are kept apart here. Where only a bound is given, the exact number is not on record here.

We go through four compounds from patent US11472778B2, “Hepatitis C virus NS3/4A protease inhibitors” (priority 2017, dated 2022).

Series [1] addresses GT1a D168A NS3/4A protease. The format is biochemical, Hepatitis C virus. To be noted: Table 3; Ki D168A relative to GT1a WT. Summed up: (§1)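 NS3/4A protease (2 nM; wild-type GT1a or D168A) pre-incubated 1 h at room temperature with increasing inhibitor in 50 mM Tris pH 7.5, 5% glycerol, 10 mM DTT, 0.6 mM LDAO, 4% DMSO. Ki from three independent data sets per construct; ΔG=RTlnKi.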

In series [2] the target is T1, wild-type GT1a NS3/4A protease (UniProt P27958, C1185S, species not given).
T1 construct: Ki (nM) GT1a WT NS3/4A Protease
The format is biochemical, Hepatitis C virus. As to conditions: read-out: Ki (nM) GT1a WT NS3/4A Protease. In a few lines: as §1

In series [3] the target is T2, GT1a D168A NS3/4A protease (UniProt P27958, C1185S/D1194A, species not given).
T2 construct: Ki (nM) GT1a D168A NS3/4A Protease
The format is biochemical, Hepatitis C virus. To be noted: read-out: Ki (nM) GT1a D168A NS3/4A Protease. In a few lines:
as §1

Series [4] has as its system wild-type HCV replicon in Huh7 cells. Put plainly: Cell-based drug susceptibility (replicon) assay, wild-type. To be noted: Hepatitis C virus, read-out: Replicon EC50 (nM) WT. Summed up:
(§2)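 Variants made by site-directed mutagenesis in a Con1 (genotype 1b) luciferase reporter replicon carrying H77 (genotype 1a) NS3. Replicon RNA electroporated into Huh7 cells; luciferase (RLU) measured 96 h post-electroporation across increasing protease inhibitor concentrations.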
A general note: A replicon is a self-replicating genome or part of one, used to study replication in cells.

Series [5] relates to HCV replicon R155K variant in Huh7 cells. Kind of series: microbe, parasite or virus in culture. To be noted: for EC50: Hepatitis C virus; for Replicon EC50 (Fold change) R155K: Table 4, relative to WT replicon. The format is cell-based, Hepatitis C virus. In a few lines:
as §2

Series [6] relates to HCV replicon A156T variant in Huh7 cells. Kind of series: microbe, parasite or virus in culture. Type of series: cell-based, Hepatitis C virus. As to conditions: for EC50: Hepatitis C virus; for Replicon EC50 (Fold change) A156T: Table 4, relative to WT replicon. In a few lines: as §2
Series [7] relates to HCV replicon D168A variant in Huh7 cells. Kind of series: microbe, parasite or virus in culture. The format is cell-based, Hepatitis C virus. To be noted: for EC50: Hepatitis C virus; for Replicon EC50 (Fold change) D168A: Table 4, relative to WT replicon. In a few lines: as §2
For series [8] the following is noted: rcm bond, 15-membered ring, Zhan 1b, 1,2-DCE.
A further series has as its target T3, GT3a NS3/4A protease (Hepatitis C virus genotype 3a, UniProt Q81495).
T3 construct: drug-resistant variant D168A, and GT3a NS3/4A protease; made in house; host or cells: Escherichia coli BL21(DE3)
Kind of series: biochemical. To be noted: for Ki (Fold change) GT3a NS3/4A Protease: Table 3, Ki GT3a relative to GT1a WT. Summed up:
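Protease at 2 nM pre-incubated 1 h at room temperature with increasing inhibitor concentrations in 50 mM Tris, 5% glycerol, 10 mM DTT, 0.6 mM LDAO, 4% DMSO. Three independent data sets per inhibitor and construct.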

Series [9] has as its system HCV replicon D168V variant in Huh7 cells. Kind of series: microbe, parasite or virus in culture. Type of series: cell-based, Hepatitis C virus. As to conditions: for EC50: Hepatitis C virus; for Replicon EC50 (Fold change) D168V: Table 4, relative to WT replicon. Summed up:
as §2

[10] abbreviates: Huh-7, 96 h, Table 2, Huh7 cells, luciferase 96 h.
Where [11] appears, read: Huh-7, 96 h, read-out: Replicon EC50 (nM) R155K, Table 2, Huh7 cells, luciferase 96 h.
The mark [12] stands for this setting: Huh-7, read-out: Replicon EC50 (nM) R155K, Table 4.
[13] abbreviates: Huh-7, 96 h, read-out: Replicon EC50 (nM) A156T, Table 2, Huh7 cells, luciferase 96 h.
Setting [14] is: Huh-7, read-out: Replicon EC50 (nM) A156T, Table 4.
Setting [15] is: Huh-7, 96 h, read-out: Replicon EC50 (nM) D168A, Table 2, Huh7 cells, luciferase 96 h.
The mark [16] stands for this setting: Huh-7, read-out: Replicon EC50 (nM) D168A, Table 4.
Setting [17] is: Huh-7, 96 h, read-out: Replicon EC50 (nM) D168V, Table 2, Huh7 cells, luciferase 96 h.
Setting [18] is: Huh-7, read-out: Replicon EC50 (nM) D168V, Table 4.

T3 sequence (Q81495 1033-1214): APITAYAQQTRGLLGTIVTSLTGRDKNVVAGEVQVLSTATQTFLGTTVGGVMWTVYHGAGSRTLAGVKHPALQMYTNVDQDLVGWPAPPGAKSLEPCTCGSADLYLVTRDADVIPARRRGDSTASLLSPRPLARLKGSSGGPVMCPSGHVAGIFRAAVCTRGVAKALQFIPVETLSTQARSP

Turning to `COc1ccc2nc(C)c(O[C@@H]3C[C@H]4C(=O)N[C@]5(C(=O)NS(=O)(=O)C6CC6)C[C@H]5/C=C\CCCCC[C@H](NC(=O)OC(C)(C)C)C(=O)N4C3)nc2c1` [Compound 18b, tert-Butyl ((2R,6S,13aS,14aR,16aS,Z)-14a-((cyclopropylsulfonyl)carbamoyl)-2-((7-methoxy-3-methylquinoxalin-2-yl)oxy)-5,16-dioxo-1,2,3,5,6,7,8,9,10,11,13a,14,14a,15,16,16a-hexadecahydrocyclopropa[e]pyrrolo[1,2-a][1,4]diazacyclopentadecin-6-yl)carbamate], in series [1], the “Ki (Fold change) GT1a D168A NS3/4A Protease” value is given as “(15) fold”. In addition, the Ki is 3.4 nM in series [2] (Table 1); 3.4 nM in series [2] (Table 3); 50.9 nM in series [3] (Table 1); 50.9 ± 3.7 nM in series [3] (Table 3); 152 nM on GT3a NS3/4A protease. Further, the EC50 came out at 0.39 nM in [4] (setting [10]); 0.39 nM in series [4] (Huh-7, Table 4); 1.17 nM in [5] (setting [11]); 1.17 nM in series [5] (setting [12]); 5.95 nM in [6] (setting [13]); 5.95 nM in [6] (setting [14]). In addition, the half-maximal effective concentration (EC50) in series [7] (setting [15]) was 4.24 nM; in [7] (setting [16]), 4.24 nM; in series [9] (setting [17]) it was 3.17 nM; in series [9] (setting [18]), 3.17 nM. The “Replicon EC50 (Fold change) R155K” value in series [5] is given as “(3) fold”. The “Replicon EC50 (Fold change) A156T” value in series [6] is listed as “(15) fold”. The “Replicon EC50 (Fold change) D168A” value in [7] is “(11) fold”. In [8] (6.5 mM, 70.0 °C), this compound yielded a ring closure, isolated yield of 45%. The “Ki (Fold change) GT3a NS3/4A Protease” value on GT3a NS3/4A protease is given as “(45) fold”. The “Replicon EC50 (Fold change) D168V” value in series [9] was “(8) fold”.
On to `COc1ccc2nc(Cl)c(O[C@@H]3C[C@H]4C(=O)N[C@]5(C(=O)NS(=O)(=O)C6CC6)C[C@H]5/C=C\CCCCC[C@H](NC(=O)OC(C)(C)C)C(=O)N4C3)nc2c1` [Compound 18c, tert-Butyl ((2R,6S,13aS,14aR,16aS,Z)-2-((3-chloro-7-methoxyquinoxalin-2-yl)oxy)-14a-((cyclopropylsulfonyl)carbamoyl)-5,16-dioxo-1,2,3,5,6,7,8,9,10,11,13a,14,14a,15,16,16a-hexadecahydrocyclopropa[e]pyrrolo[1,2-a][1,4]diazacyclopentadecin-6-yl)carbamate], for which the “Ki (Fold change) GT1a D168A NS3/4A Protease” value in [1] is “(37) fold”. In addition, the Ki in series [2] (Table 1) was found to be 1.07 nM; in series [2] (Table 3) it was 1.07 nM; in series [3] (Table 1) it was 39.8 nM; in series [3] (Table 3), 39.8 ± 3.4 nM; on GT3a NS3/4A protease it was 67.5 nM. Further, the EC50 was 0.16 nM in series [4] (Huh-7, Table 4); 0.44 nM in series [5] (setting [12]); 16.2 nM in series [6] (setting [13]); 16.2 nM in series [6] (setting [14]); less than 2 nM in series [7] (setting [15]); 1.42 nM in series [7] (setting [16]). The EC50 in series [9] (setting [17]) is less than 1 nM; in [9] (setting [18]), 0.73 nM. Also, the “Replicon EC50 (Fold change) R155K” value in series [5] is recorded as “(3) fold”. Besides, the “Replicon EC50 (Fold change) A156T” value in [6] is reported as “(101) fold”. Besides, the “Replicon EC50 (Fold change) D168A” value in series [7] was “(9) fold”. In series [8] (6.3 mM, 70.0 °C), the ring closure, isolated yield amounted to 50%. Further, on GT3a NS3/4A protease, the “Ki (Fold change) GT3a NS3/4A Protease” value is “(63) fold”. For the same compound, the “Replicon EC50 (Fold change) D168V” value in series [9] is listed as “(5) fold”.
For `CCc1nc2ccccc2nc1O[C@@H]1C[C@H]2C(=O)N[C@]3(C(=O)NS(=O)(=O)C4CC4)C[C@H]3/C=C\CCCCC[C@H](NC(=O)OC(C)(C)C)C(=O)N2C1` [Compound 18g, tert-Butyl ((2R,6S,13aS,14aR,16aS,Z)-14a-((cyclopropylsulfonyl)carbamoyl)-2-((3-ethylquinoxalin-2-yl)oxy)-5,16-dioxo-1,2,3,5,6,7,8,9,10,11,13a,14,14a,15,16,16a-hexadecahydrocyclopropa[e]pyrrolo[1,2-a][1,4]diazacyclopentadecin-6-yl)carbamate], the “Ki (Fold change) GT1a D168A NS3/4A Protease” value in series [1] was “(26) fold”. The Ki in [2] (Table 1) came out at 7.18 nM; in series [2] (Table 3), 7.18 nM; in [3] (Table 1), 190 nM; in [3] (Table 3) it was 190 ± 13 nM. The EC50 in series [4] (setting [10]) is 0.46 nM; in [4] (Huh-7, Table 4), 0.46 nM; in series [5] (setting [11]), 1.81 nM; in series [5] (setting [12]) it was 1.81 nM; in [6] (setting [13]), 10.6 nM; in series [6] (setting [14]), 10.6 nM. The EC50 in [7] (setting [15]) worked out at 8.55 nM; in series [7] (setting [16]) it was 8.55 nM; in series [9] (setting [17]), 14 nM; in series [9] (setting [18]) it was 14 nM. For the same compound, in series [5], the “Replicon EC50 (Fold change) R155K” value is on record as “(4) fold”. In addition, the “Replicon EC50 (Fold change) A156T” value in series [6] is recorded as “(23) fold”. The “Replicon EC50 (Fold change) D168A” value in [7] is recorded as “(19) fold”. The compound further gave a ring closure, isolated yield in series [8] (6.9 mM) of 60%. Further, in series [9], the “Replicon EC50 (Fold change) D168V” value is given as “(30) fold”.
With `COc1ccc2nc(C(C)C)c(O[C@@H]3C[C@H]4C(=O)N[C@]5(C(=O)NS(=O)(=O)C6(C)CC6)C[C@H]5/C=C\CCCCC[C@H](NC(=O)OC(C)(C)C)C(=O)N4C3)nc2c1` [Compound 19e, tert-Butyl ((2R,6S,13aS,14aR,16aS,Z)-2-((3-isopropyl-7-methoxyquinoxalin-2-yl)oxy)-14a-(((1-methylcyclopropyl)sulfonyl)carbamoyl)-5,16-dioxo-1,2,3,5,6,7,8,9,10,11,13a,14,14a,15,16,16a-hexadecahydrocyclopropa[e]pyrrolo[1,2-a][1,4]diazacyclopentadecin-6-yl)carbamate], the “Ki (Fold change) GT1a D168A NS3/4A Protease” value in series [1] is recorded as “(364) fold”. In addition, the Ki is 0.58 nM in [2] (Table 1), 0.58 nM in series [2] (Table 3), 211 nM in [3] (Table 1) and 211 ± 19 nM in series [3] (Table 3). Besides, the EC50 in series [4] (setting [10]) was determined as 1.86 nM; in series [4] (Huh-7, Table 4), 1.86 nM; in [5] (setting [11]), 4.14 nM; in [5] (setting [12]), 4.14 nM; in series [6] (setting [13]), 21.2 nM; in series [6] (setting [14]), 21.2 nM. For the same compound, the concentration for a half-maximal effect (EC50) was 11.9 nM in series [7] (setting [15]), 11.9 nM in series [7] (setting [16]), 18.1 nM in [9] (setting [17]) and 18.1 nM in series [9] (setting [18]). In [5], the “Replicon EC50 (Fold change) R155K” value is “(2) fold”. The “Replicon EC50 (Fold change) A156T” value in series [6] is given as “(11) fold”. The “Replicon EC50 (Fold change) D168A” value in series [7] is recorded as “(6) fold”. The same compound showed a ring closure, isolated yield in [8] (6.6 mM) of 60%. In series [9], the “Replicon EC50 (Fold change) D168V” value was “(10) fold”.
